Calls of active or inactive are those of the source. No cut-off for these calls is given here. Peptide text beside a SMILES is read from it.
Experiments:
[1] = test system: Stomach; assay: Vasodilatory activity in rat stomach smooth muscle assessed as muscle relaxation; assay type: functional, tissue-based
[2] = organism: Cavia porcellus; assay: Vasodilatory activity in guinea pig trachea assessed as muscle relaxation; assay type: functional, tissue-based
[3] = test system: Canis familiaris; assay: Vasodilatory activity in anesthetized dog assessed as effect on blood flow; assay type: functional, organism-based; conditions: Canis lupus familiaris

Q: `COC(=O)[C@H](Cc1ccc(O)cc1)NC(=O)[C@H](CC(N)=O)NC(=O)[C@H](CC(=O)O)NC(=O)[C@@H](NC(=O)[C@H](Cc1ccccc1)NC(=O)[C@@H](NC(=O)[C@H](C)NC(=O)[C@H](CC(=O)O)NC(=O)[C@H](CO)NC(=O)[C@@H](N)Cc1cnc[nH]1)C(C)C)[C@@H](C)O` (H-HSDAVFTDNY-OMe) was tested. Which Activity [1] did it give?
A: The Activity was “Active”.

Q: And the Activity [2]?
A: The Activity was “Active”.

Q: H-AVKKYLNSILN-NH2 was tested. Which Activity [1] did it give?
A: The Activity was “Active”.

Q: And the Activity [3]?
A: The Activity was “Active”.

Q: And the Activity [2]?
A: Its Activity is “Active”.

Q: For H-RKQMAVKKYLNSILN-NH2, which Activity [3] is on record?
A: The Activity was “inactive”.

Q: H-KQMAVKKYLNSILN-NH2 was tested. Which Activity [3] did it give?
A: Its Activity is “Active”.
